Key:
Experiment in all cases: relative viability (nuclei count vs DMSO), 5 days (fraction); higher = more cells survive
VX-11e + OSI-027 = compound: CC1=CN=C(N=C1C2=CNC(=C2)C(=O)N[C@H](CO)C3=CC(=CC=C3)Cl)NC4=C(C=C(C=C4)F)Cl [VX-11e] + COc1cccc2cc(-c3nc([C@H]4CC[C@H](C(=O)O)CC4)n4ncnc(N)c34)[nH]c12 [OSI-027] (partner 0.5 µM)
Procedure, shortened: (§1)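 Lung cancer cell lines were pin-tool dosed in 1536-well plates on the day after seeding, with either a lone drug or a fixed anchor-drug dose plus five library-drug doses (not always all listed) in √10 steps. Nuclei were counted on 4× images after 5 days. Relative viability is the ratio of treated-well to vehicle-well nuclei counts, with each value a median of duplicate plates.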

VX-11e + AZD7762 = compound: CC1=CN=C(N=C1C2=CNC(=C2)C(=O)N[C@H](CO)C3=CC(=CC=C3)Cl)NC4=C(C=C(C=C4)F)Cl [VX-11e] + NC(=O)Nc1cc(-c2cccc(F)c2)sc1C(=O)N[C@H]1CCCNC1 [AZD7762] (partner 0.2 µM)
Procedure, shortened: as §1

VX-11e + Pemetrexed = compound: CC1=CN=C(N=C1C2=CNC(=C2)C(=O)N[C@H](CO)C3=CC(=CC=C3)Cl)NC4=C(C=C(C=C4)F)Cl [VX-11e] + Nc1nc2[nH]cc(CCc3ccc(C(=O)N[C@@H](CCC(=O)O)C(=O)O)cc3)c2c(=O)[nH]1 [Pemetrexed] (partner 0.2 µM)
Procedure, shortened: as §1

VX-11e + Foretinib = compound: CC1=CN=C(N=C1C2=CNC(=C2)C(=O)N[C@H](CO)C3=CC(=CC=C3)Cl)NC4=C(C=C(C=C4)F)Cl [VX-11e] + COc1cc2c(Oc3ccc(NC(=O)C4(C(=O)Nc5ccc(F)cc5)CC4)cc3F)ccnc2cc1OCCCN1CCOCC1 [Foretinib] (partner 0.25 µM)
Procedure, shortened: as §1

| Cell Line | relative viability (VX-11e + OSI-027; first compound 0.04 µM) | relative viability (VX-11e + OSI-027; first compound 0.1265 µM) | relative viability (VX-11e + OSI-027; first compound 0.4 µM) | relative viability (VX-11e + OSI-027; first compound 1.265 µM) | relative viability (VX-11e + OSI-027; first compound 4 µM) | relative viability (VX-11e + AZD7762; first compound 0.04 µM) | relative viability (VX-11e + AZD7762; first compound 0.1265 µM) | relative viability (VX-11e + AZD7762; first compound 0.4 µM) | relative viability (VX-11e + AZD7762; first compound 1.265 µM) | relative viability (VX-11e + AZD7762; first compound 4 µM) | relative viability (VX-11e + Pemetrexed; first compound 0.04 µM) | relative viability (VX-11e + Pemetrexed; first compound 0.1265 µM) | relative viability (VX-11e + Pemetrexed; first compound 0.4 µM) | relative viability (VX-11e + Pemetrexed; first compound 1.265 µM) | relative viability (VX-11e + Pemetrexed; first compound 4 µM) | relative viability (VX-11e + Foretinib; first compound 0.04 µM) | relative viability (VX-11e + Foretinib; first compound 0.1265 µM) | relative viability (VX-11e + Foretinib; first compound 0.4 µM) | relative viability (VX-11e + Foretinib; first compound 1.265 µM) | relative viability (VX-11e + Foretinib; first compound 4 µM) |
| --- | --- | --- | --- | --- | --- | --- | --- | --- | --- | --- | --- | --- | --- | --- | --- | --- | --- | --- | --- | --- |
| HCC-44 | 0.485 | 0.453 | 0.144 | 0.247 | 0.284 | 1.03 | 0.904 | 1.01 | 1.07 | 1.13 | 0.766 | 0.614 | 0.63 | 0.656 | 0.793 |  |  |  |  |  |
| EMC-BAC-2 | 0.312 | 0.387 | 0.458 | 0.421 | 0.357 | 1.2 | 0.96 | 1.13 | 1 | 0.855 | 0.473 | 0.423 | 0.631 | 0.511 | 0.549 | 1.05 | 0.921 | 1.08 | 0.982 | 0.697 |
| NCI-H522 | 0.615 | 0.683 | 0.556 | 0.613 | 0.572 | 0.812 | 0.969 | 0.82 | 0.671 | 0.671 | 0.861 | 0.936 | 0.962 | 0.76 | 0.59 |  |  |  |  |  |
| NCI-H1792 | 0.733 | 0.581 | 0.524 | 0.634 | 0.208 |  | 0.623 |  | 0.413 | 0.0597 |  | 0.719 |  | 0.343 | 0.0593 |  |  |  |  |  |
| NCI-H838 | 0.356 | 0.413 | 0.3 | 0.347 | 0.262 | 0.784 | 0.962 | 0.728 | 0.977 | 0.834 | 0.236 | 0.235 | 0.239 | 0.229 | 0.217 | 1.03 | 1.11 | 1.05 | 1.1 | 0.779 |
| LCLC-103H | 0.461 | 0.458 | 0.43 | 0.402 | 0.344 | 0.766 | 0.71 | 0.801 | 0.606 | 0.654 | 0.442 | 0.437 | 0.53 | 0.417 | 0.493 | 0.867 | 0.694 | 0.858 | 0.656 | 0.67 |
| NCI-H2170 | 0.589 | 0.624 | 0.155 | 0.649 | 0.453 | 0.758 | 0.89 | 0.298 | 0.632 | 0.821 | 0.222 | 0.254 | 0.232 | 0.247 | 0.254 | 0.995 | 1.13 | 0.906 | 0.953 | 0.812 |
| HOP-62 | 0.633 | 0.715 | 0.569 | 0.464 | 0.372 | 0.486 | 0.644 | 0.234 | 0.315 | 0.166 | 0.348 | 0.264 | 0.277 | 0.192 | 0.22 | 1.22 | 1.03 | 1.16 | 0.859 | 0.589 |
| HCC-827 | 0.762 | 0.797 | 0.74 | 0.977 | 0.44 | 0.162 | 0.222 | 0.212 | 0.349 | 0.21 | 0.254 | 0.226 | 0.241 | 0.271 | 0.252 | 1.07 | 1.09 | 1.04 | 1.13 | 0.739 |

From the supplement of paper PMC10307832
